Experimental data published in patent US8957070B2, “Glucokinase activator compounds, methods of activating glucokinase and methods of treating diabetes and obesity” (Takeda Pharmaceutical Company Limited, priority 2005, dated 2015).

Target: T1, GST-hLGK1 (human liver type GK) (Homo sapiens, UniProt P35557)
T1 construct: with a BamHI site added to immediately before the initiation codon; made in house; host or cells: Escherichia coli BL21
T1 sequence (P35557 1-464 isoform P35557-3): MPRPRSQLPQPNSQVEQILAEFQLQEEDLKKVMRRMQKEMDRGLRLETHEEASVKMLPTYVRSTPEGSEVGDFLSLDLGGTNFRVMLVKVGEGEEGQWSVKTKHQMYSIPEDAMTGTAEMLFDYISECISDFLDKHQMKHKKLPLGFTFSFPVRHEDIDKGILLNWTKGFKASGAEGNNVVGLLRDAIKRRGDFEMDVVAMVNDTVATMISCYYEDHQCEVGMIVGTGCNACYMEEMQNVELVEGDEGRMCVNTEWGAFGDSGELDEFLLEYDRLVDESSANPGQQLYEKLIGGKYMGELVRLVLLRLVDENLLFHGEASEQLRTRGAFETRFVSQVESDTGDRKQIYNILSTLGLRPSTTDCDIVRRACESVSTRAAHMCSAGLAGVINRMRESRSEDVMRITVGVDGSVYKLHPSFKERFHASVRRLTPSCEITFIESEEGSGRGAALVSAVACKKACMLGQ
Assay: Determination of GK activity value (Mant-ATP conversion, capillary electrophoresis)
Assay type: biochemical
Settings: concentration necessary for activating 50% of the maximum GK activity value, 37° C., 60 min, D-glucose added
Protocol: A solution (5 μL) of test compound in 50% dimethyl sulfoxide was added to each well of 384 well black plate (Nalge Nunc International K.K.). Then, a solution (35 μL) obtained by diluting GST-hLGK1 obtained in Reference Example 2A with measurement buffer (containing 50 mM HEPES (pH 7.4), 200 mM KCl, 5 mM MgCl2, 2.5 mM DTT and 50 μM 2′-(or -3′)-O—(N-methylanthraniloyl)adenosine 5′-triphosphate (Mant-ATP) (Jena Bioscience GmbH)) to 6 μg/mL was added to each well.
Each well was stood at 37° C. for 10 min, and 25 mM D-glucose solution (10 μL) was added to start the reaction.
Each well after the reaction was stood at 37° C. for 60 min, and the reaction was quenched by adding 25 μL of a quenching solution (containing 200 mM HEPES (pH 7.4), 20 mM MgCl2, 200 mM EDTA, 0.03% Triton-X 100, 0.3% Coating 3 reagent (Caliper Life Sciences, Inc.)).
Mant-ATP (substrate) and Mant-ADP (reaction resultant product) were separated from each well after the reaction by a microchip type capillary electrophoresis apparatus 250 HTS (Caliper Life Sciences, Inc.). The reaction rate [(reaction resultant product peak height)/(reaction resultant product peak height+substrate peak height)×100(%)] was calculated from the ratio of the substrate peak height and reaction resultant product peak height obtained by fluorescence detection (excitation wavelength 355 nm, measurement wavelength 460 nm) and used as the index of GK activity.
As a control group, the reaction rate was calculated in the same manner as above except that “solution in 50% dimethyl sulfoxide” was used instead of “solution of test compound in 50% dimethyl sulfoxide”.
The percentage obtained by dividing the reaction rate of the well added with the test compound (test compound addition group) by the reaction rate of the well added with 50% solution in dimethyl sulfoxide alone (control group) was taken as the GK activity value of the test compound, and the concentration of the test compound necessary for activating 50% of the maximum value of the activity value is shown as EC50 value.

Row | Compound | EC50 [nM]
1 | CCOC(=O)c1[nH]c2c(NS(=O)(=O)c3cccs3)cccc2c1C [Example 23, Ethyl 3-methyl-7-[(2-thienylsulfonyl)amino]-1H-indole-2-carboxylate] | 2700
2 | CCN(c1cccc2cc(-c3ncc(COc4ccc(C(=O)O)cc4)s3)[nH]c12)S(=O)(=O)c1cccs1 [Example 280, 4-[(2-{7-[ethyl(2-thienylsulfonyl)amino]-1H-indol-2-yl}-1,3-thiazol-5-yl)methoxy]benzoic acid] | 35
3 | CN(c1cccc2cc(-c3nccs3)[nH]c12)S(=O)(=O)c1nccn1C [Example 209, N,1-Dimethyl-N-[2-(1,3-thiazol-2-yl)-1H-indol-7-yl]-1H-imidazole-2-sulfonamide] | 510
4 | CCOC(=O)Cc1cnc(-c2cc3cccc(N(C)S(=O)(=O)c4cccs4)c3[nH]2)s1 [Example 137, Ethyl (2-{7-[methyl(2-thienylsulfonyl)amino]-1H-indol-2-yl}-1,3-thiazol-5-yl)acetate] | 48
5 | CN(c1cccc2cc(C3=NCCS3)[nH]c12)S(=O)(=O)c1cccs1 [Example 86, N-[2-(4,5-Dihydro-1,3-thiazol-2-yl)-1H-indol-7-yl]-N-methylthiophene-2-sulfonamide] | 27
6 | O=S(=O)(Nc1cccc2cc(C3=NCCO3)[nH]c12)c1cccs1 [Example 5, N-[2-(4,5-Dihydro-1,3-oxazol-2-yl)-1H-indol-7-yl]thiophene-2-sulfonamide] | 1200
7 | O=C1CCCc2c1[nH]c1c(NS(=O)(=O)c3cccs3)cccc21 [Example 11, N-(1-Oxo-2,3,4,9-tetrahydro-1H-carbazol-8-yl) thiophene-2-sulfonamide] | 1400
8 | CN(c1cccc2cc(-c3ncc(CCC#N)s3)[nH]c12)S(=O)(=O)c1cccs1 [Example 151, N-{2-[5-(2-Cyanoethyl)-1,3-thiazol-2-yl]-1H-indol-7-yl}-N-methylthiophene-2-sulfonamide] | 80
9 | CN(c1cc(F)cc2cc(C3=NCCS3)[nH]c12)S(=O)(=O)c1cccs1 [Example 165, N-[2-(4,5-dihydro-1,3-thiazol-2-yl)-5-fluoro-1H-indol-7-yl]-N-methylthiophene-2-sulfonamide] | 28
10 | O=S(=O)(Nc1cccc2cc(C3=NCCS3)[nH]c12)c1cccs1 [Example 3, N-[2-(4,5-dihydro-1,3-thiazol-2-yl)-1H-indol-7-yl]thiophene-2-sulfonamide] | 110
11 | O=S(=O)(Nc1cccc2cc(-c3ccccn3)[nH]c12)c1cccs1 [Example 8, N-[2-(Pyridin-2-yl)-1H-indol-7-yl]thiophene-2-sulfonamide] | 1500
12 | Cc1cc(NS(=O)(=O)c2cccs2)c2[nH]c3c(c2c1)CCNC3=O [Example 52, N-(6-Methyl-1-oxo-2,3,4,9-tetrahydro-1H-β-carbolin-8-yl)thiophene-2-sulfonamide] | 2000
13 | Cc1c(C2=NCCS2)[nH]c2c(NS(=O)(=O)c3cccs3)cccc12 [Example 26, N-[2-(4,5-Dihydro-1,3-thiazol-2-yl)-3-methyl-1H-indol-7-yl]thiophene-2-sulfonamide] | 1700
14 | O=S(=O)(Nc1cccc2cc(-c3ncon3)[nH]c12)c1cccs1 [Example 17, N-[2-(1,2,4-Oxadiazol-3-yl)-1H-indol-7-yl]thiophene-2-sulfonamide] | 4800
15 | CN(c1ccc(Cl)c2cc(-c3ncc(CO)s3)[nH]c12)S(=O)(=O)c1cccs1 [Example 261, N-{4-chloro-2-[5-(hydroxymethyl)-1,3-thiazol-2-yl]-1H-indol-7-yl}-N-methylthiophene-2-sulfonamide] | 19
16 | CCN(c1cccc2cc(C3=NCCS3)[nH]c12)S(=O)(=O)c1cccs1 [Example 104, N-[2-(4,5-Dihydro-1,3-thiazol-2-yl)-1H-indol-7-yl]-N-ethylthiophene-2-sulfonamide] | 34
17 | CN(c1cccc2cc(-c3nccs3)[nH]c12)S(=O)(=O)c1cccs1 [Example 97, N-Methyl-N-[2-(1,3-thiazol-2-yl)-1H-indol-7-yl]thiophene-2-sulfonamide] | 77
18 | O=S(=O)(Nc1cccc2cc(-c3nccs3)[nH]c12)c1cccs1 [Example 7, N-[2-(1,3-Thiazol-2-yl)-1H-indol-7-yl]thiophene-2-sulfonamide] | 240
19 | CN(c1cccc2cc(-c3ncc(CN4CCOCC4)s3)[nH]c12)S(=O)(=O)c1cccs1 [Example 146, N-Methyl-N-{2-[5-(morpholin-4-ylmethyl)-1,3-thiazol-2-yl]-1H-indol-7-yl}thiophene-2-sulfonamide] | 180
20 | CCCSc1ccc(NS(=O)(=O)c2cccs2)c2[nH]c(C(=O)OCC)cc12 [Example 65, Ethyl 4-(propylthio)-7-[(2-thienylsulfonyl)amino]-1H-indole-2-carboxylate] | 390
21 | CN(c1cc(OC(F)(F)F)cc2cc(C3=NCCS3)[nH]c12)S(=O)(=O)c1cccs1 [Example 169, N-[2-(4,5-dihydro-1,3-thiazol-2-yl)-5-(trifluoromethoxy)-1H-indol-7-yl]-N-methylthiophene-2-sulfonamide] | 22

Tested on: not given
Assay: not given
Settings: not given

Row | Compound | melting point [°C]
22 | Cc1nc(-c2cc3cccc(N(C)S(=O)(=O)c4cccs4)c3[nH]2)cs1 [Example 173, N-Methyl-N-[2-(2-methyl-1,3-thiazol-4-yl)-1H-indol-7-yl]thiophene-2-sulfonamide] | 161 to 162
23 | Cc1ccc(N(C)S(=O)(=O)c2cccs2)c2[nH]c(-c3ncc(CO)s3)cc12 [Example 245, N-{2-[5-(Hydroxymethyl)-1,3-thiazol-2-yl]-4-methyl-1H-indol-7-yl}-N-methylthiophene-2-sulfonamide] | 184 to 185
24 | CCOC(=O)c1cc2c(C)ccc(N(CC)S(=O)(=O)c3cccs3)c2[nH]1 [Example 246, Ethyl 7-[ethyl(2-thienylsulfonyl)amino]-4-methyl-1H-indole-2-carboxylate] | 148 to 149
25 | CCN(c1ccc(C)c2cc(-c3ncc(C(C)O)s3)[nH]c12)S(=O)(=O)c1cccs1 (centres unmarked) [Example 249, N-Ethyl-N-{2-[5-(1-hydroxyethyl)-1,3-thiazol-2-yl]-4-methyl-1H-indol-7-yl}thiophene-2-sulfonamide] | 152 to 153
26 | CCN(c1cc(C)c(C)c2cc(-c3ncc(CO)s3)[nH]c12)S(=O)(=O)c1cccs1 [Example 254, N-Ethyl-N-{2-[5-(hydroxymethyl)-1,3-thiazol-2-yl]-4,5-dimethyl-1H-indol-7-yl}thiophene-2-sulfonamide] | 189 to 190
27 | CN(c1cc(OC(F)(F)F)cc2cc(C(=O)O)[nH]c12)S(=O)(=O)c1cccs1 [Example 167, 7-[Methyl(2-thienylsulfonyl)amino]-5-(trifluoromethoxy)-1H-indole-2-carboxylic acid] | 245 to 246
28 | CCN(c1ccc(C)c2cc(-c3ncc(CO)s3)[nH]c12)S(=O)(=O)c1cccs1 [Example 250, N-Ethyl-N-{2-[5-(hydroxymethyl)-1,3-thiazol-2-yl]-4-methyl-1H-indol-7-yl}thiophene-2-sulfonamide] | 166 to 167
29 | CCOC(=O)c1cc2c(C)c(C)cc(N(CC)S(=O)(=O)c3cccs3)c2[nH]1 [Example 251, Ethyl 7-[ethyl(2-thienylsulfonyl)amino]-4,5-dimethyl-1H-indole-2-carboxylate] | 134 to 135
